Here are results for four compounds from paper PMC9178925 (Biochemical pharmacology, 2022).

Values joined by “and” are separate entries in the source; they are usually repeats but may differ in a detail not shown here. Identical values can stand only once.

In one test the target is α1β2(N265S)γ2S GABAAR (Rattus norvegicus, UniProt P62813+P63138, N289S). Kind of test: Two-electrode voltage clamp, potentiation of low GABA currents in oocytes. It is filed as cell-based, rat (β2 rat or human). On the technique in general: Two-electrode voltage clamp holds a large cell at a set potential and records current.
For test [1], the target named is T1, α1β2γ2L GABAAR (Rattus norvegicus, UniProt P62813+P63138). Kind of test: Functional competition assay.
The target of test [2] is T1, α1β2γ2L GABAAR. Put plainly: Two-electrode voltage clamp, concentration-response and mechanistic. It is filed as cell-based, rat (β2 rat or human).
In another test the target is α1β2γ2S GABAAR (Rattus norvegicus, UniProt P62813+P63138). It is filed as cell-based, rat (β2 rat or human). The settings on record: 10 μM loreclezole, n = 5 oocytes.
The target of another test is α1(Q241L)β2γ2L GABAAR (Rattus norvegicus, UniProt P62813+P63138, Q268L). Kind of test: Two-electrode voltage clamp, potentiation of low GABA currents in oocytes. The settings on record: 30 μM GABA alone. It is filed as cell-based, rat (β2 rat or human).

As usually defined, the EC50 is the concentration giving half of the maximal effect. Low readings indicate an effect from little substance, high ones a need for much substance. Broadly, the Kd is the free concentration of one partner at which half of the binding sites on the other are occupied at equilibrium, for simple one-to-one binding. Lower therefore signals higher affinity. For `Cl/C(=C\n1cncn1)c1ccc(Cl)cc1Cl` [loreclezole, reference compound], the “potentiation of the responses to low GABA” value at α1β2(N265S)γ2S GABAAR (10 μM loreclezole, n = 4 oocytes) stood at 36 ± 6%. For the same compound, at α1β2γ2L GABAAR [1] (10 μM loreclezole, 0.75 μM GABA), the “potentiation of the peak response to GABA” value amounted to 643 ± 91%. For the same compound, the “enhancement of the peak response from receptors activated by R(+)-etomidate” value at α1β2γ2L GABAAR [1] (10 μM loreclezole, 1 μM R(+)-etomidate) turned out to be 395 ± 48%. Moreover, the “PA of the peak response” value on α1β2γ2L GABAAR [1] (0.2–0.5 μM GABA + 3 μM loreclezole) came out at 0.08 ± 0.05. Moreover, at α1β2γ2L GABAAR [2], the response was half-maximal at 3.4 ± 0.6 µM (EC50) and the Kd was found to be 7.1 ± 2 µM. At α1β2γ2L GABAAR [2] (10 μM GABA, Eq. 1, n = 6 oocytes), the cLor was 0.251 ± 0.049 and 0.251. This compound gave a nH at α1β2γ2L GABAAR [2] (loreclezole, 10 μM GABA, Hill equation) of 1.27 ± 0.41. In addition, the “potentiation of the responses to low GABA” value at α1β2γ2S GABAAR was determined as 269 ± 46%.
On to `CC(=O)[C@H]1CC[C@H]2[C@@H]3CC[C@@H]4C[C@H](O)CC[C@]4(C)[C@H]3CC[C@]12C` [pregnanolone, 1-[(1S,3aS,3bR,5aR,7R,9aS,9bS,11aS)-7-Hydroxy-9a,11a-dimethylhexadecahydro-1H-cyclopenta[a]phenanthren-1-yl]ethan-1-one, reference compound], for which the “PA of peak response” value on α1β2γ2L GABAAR [1] (2 μM pregnanolone alone) is on record as 0.005 ± 0.002.
For the compound `[Cl-].[Cl-].[Zn+2]` [ZnCl2], the “change of GABA responses (positive = potentiation)” value on α1β2(N265S)γ2S GABAAR (10 μM ZnCl2 pre-applied 60 s then co-applied with GABA) is recorded as “+11 ± 1%”.
Regarding `NCCCC(=O)O` [GABA, γ-aminobutyric acid, reference compound], the “PA of peak response” value is on record as 0.004 ± 0.001 on α1β2γ2L GABAAR [1] (0.05 μM GABA alone); 0.051 ± 0.018 at α1β2γ2L GABAAR [1] (0.75 μM GABA alone); 0.030 ± 0.007 on α1β2γ2L GABAAR [1] (1–2 μM GABA alone); 0.26 ± 0.03 on α1β2γ2L GABAAR [2] (10 μM GABA alone, n = 6 oocytes). In addition, the “mean PA of the peak response” value on α1β2γ2L GABAAR [1] (0.2–0.5 μM GABA alone, n = 7 oocytes) is reported as 0.009 ± 0.008. The “PA (probability of being in the active state) of peak response” value at α1β2γ2L GABAAR [2] (2 μM GABA alone, normalized to 1 mM GABA + 50 μM propofol) was 0.18 and 0.17 ± 0.02 and 0.15 ± 0.02; at α1(Q241L)β2γ2L GABAAR, 0.19 ± 0.05.
